Measured values as given in patent publication US20250129078A1, “ERBB2 INHIBITORS” (Cogent Biosciences, Inc., priority 2023, published 2025).

How the values were obtained:
ErbB2 V777L = ErbB2 V777L (Homo sapiens (Human), UniProt P04626, V777L); experiment: ErbB enzyme assay (CisBio HTRF-KinEASE-TK), ErbB2 V777L; type: biochemical
Method in brief: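 HTRF KinEASE-TK tyrosine-kinase read-out of substrate phosphorylation after a final 1 h at ambient temperature, from the 655/620 nm emission ratio.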

EGFR WT = EGFR WT (Homo sapiens (Human), UniProt P00533); experiment: ErbB enzyme assay (CisBio HTRF-KinEASE-TK), EGFR WT; type: biochemical; conditions: ATP at Km (25 μM), 1 h incubation
EGFR WT, sequence (P00533 25-1210): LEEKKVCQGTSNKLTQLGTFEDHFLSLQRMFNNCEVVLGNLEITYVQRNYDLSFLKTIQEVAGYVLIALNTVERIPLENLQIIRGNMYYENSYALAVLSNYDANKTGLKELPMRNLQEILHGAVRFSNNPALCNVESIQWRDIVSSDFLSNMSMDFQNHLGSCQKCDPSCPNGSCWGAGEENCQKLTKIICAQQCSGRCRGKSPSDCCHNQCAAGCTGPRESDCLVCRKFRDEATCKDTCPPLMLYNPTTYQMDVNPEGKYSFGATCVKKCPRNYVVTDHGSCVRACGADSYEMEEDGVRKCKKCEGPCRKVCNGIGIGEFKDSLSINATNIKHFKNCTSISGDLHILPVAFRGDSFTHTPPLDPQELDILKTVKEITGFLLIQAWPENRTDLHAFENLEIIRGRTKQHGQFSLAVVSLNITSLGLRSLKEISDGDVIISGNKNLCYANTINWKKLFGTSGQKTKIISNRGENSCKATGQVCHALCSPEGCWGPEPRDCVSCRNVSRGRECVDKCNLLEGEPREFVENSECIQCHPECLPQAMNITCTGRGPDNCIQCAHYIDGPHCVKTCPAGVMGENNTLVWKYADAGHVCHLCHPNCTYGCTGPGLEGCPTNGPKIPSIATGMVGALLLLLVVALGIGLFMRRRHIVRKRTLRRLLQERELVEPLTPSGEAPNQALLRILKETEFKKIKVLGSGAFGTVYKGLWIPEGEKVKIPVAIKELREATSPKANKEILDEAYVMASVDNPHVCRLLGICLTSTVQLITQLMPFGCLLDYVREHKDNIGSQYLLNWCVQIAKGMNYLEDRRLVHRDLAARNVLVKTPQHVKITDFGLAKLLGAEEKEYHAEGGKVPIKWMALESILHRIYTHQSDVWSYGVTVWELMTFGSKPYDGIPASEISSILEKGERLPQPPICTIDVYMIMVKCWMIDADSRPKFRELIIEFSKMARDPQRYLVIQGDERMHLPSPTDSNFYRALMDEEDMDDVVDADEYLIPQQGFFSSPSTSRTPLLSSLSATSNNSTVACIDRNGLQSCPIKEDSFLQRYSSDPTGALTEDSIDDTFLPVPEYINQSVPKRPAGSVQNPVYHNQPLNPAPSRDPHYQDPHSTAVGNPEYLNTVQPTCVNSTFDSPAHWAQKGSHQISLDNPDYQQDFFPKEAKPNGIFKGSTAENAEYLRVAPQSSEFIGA
Method in brief: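 Compounds, serially diluted three-fold, were incubated with enzyme for 1 h at ambient temperature. Detection reagents were then added for a further hour, and the 655/620 nm HTRF ratio was normalised to uninhibited and pre-quenched controls. IC50 was fitted with a four-parameter logistic model.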

ErbB2 V777L, sequence (P04626 23-1255 V777L): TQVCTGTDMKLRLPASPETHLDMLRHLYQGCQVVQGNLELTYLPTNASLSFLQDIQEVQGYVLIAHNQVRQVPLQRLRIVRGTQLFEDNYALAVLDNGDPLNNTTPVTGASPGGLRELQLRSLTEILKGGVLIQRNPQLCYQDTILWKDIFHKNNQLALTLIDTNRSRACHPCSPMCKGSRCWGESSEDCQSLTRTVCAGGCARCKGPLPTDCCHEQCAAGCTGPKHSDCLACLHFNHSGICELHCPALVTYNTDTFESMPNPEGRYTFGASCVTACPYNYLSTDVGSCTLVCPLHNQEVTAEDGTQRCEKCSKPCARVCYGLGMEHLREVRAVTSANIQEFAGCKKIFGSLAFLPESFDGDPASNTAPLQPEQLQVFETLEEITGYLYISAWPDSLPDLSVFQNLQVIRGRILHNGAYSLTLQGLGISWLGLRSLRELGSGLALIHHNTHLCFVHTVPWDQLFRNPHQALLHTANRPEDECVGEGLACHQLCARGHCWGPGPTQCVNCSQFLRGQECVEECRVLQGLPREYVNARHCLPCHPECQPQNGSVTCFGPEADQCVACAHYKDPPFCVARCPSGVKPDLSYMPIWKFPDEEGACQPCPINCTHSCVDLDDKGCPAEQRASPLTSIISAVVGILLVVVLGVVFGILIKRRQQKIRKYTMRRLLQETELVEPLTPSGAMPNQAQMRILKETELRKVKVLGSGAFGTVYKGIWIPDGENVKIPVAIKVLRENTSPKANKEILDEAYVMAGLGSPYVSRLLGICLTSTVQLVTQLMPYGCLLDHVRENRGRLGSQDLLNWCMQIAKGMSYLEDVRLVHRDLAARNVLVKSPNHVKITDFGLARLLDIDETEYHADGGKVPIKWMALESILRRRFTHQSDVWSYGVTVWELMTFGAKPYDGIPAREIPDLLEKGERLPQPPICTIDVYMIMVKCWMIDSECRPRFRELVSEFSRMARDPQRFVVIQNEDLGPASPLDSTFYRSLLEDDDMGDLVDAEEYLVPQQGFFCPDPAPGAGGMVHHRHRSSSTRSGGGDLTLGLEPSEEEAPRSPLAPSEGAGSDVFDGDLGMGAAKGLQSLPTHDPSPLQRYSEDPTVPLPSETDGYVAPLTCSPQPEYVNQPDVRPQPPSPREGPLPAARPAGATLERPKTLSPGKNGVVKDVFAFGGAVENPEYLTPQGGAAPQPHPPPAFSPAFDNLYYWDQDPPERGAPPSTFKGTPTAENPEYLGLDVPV

Row | IC50 (ErbB2 V777L) [nM] | IC50 (EGFR WT) [nM] | SMILES
1 | 50 to 100 | 100 to 500 | C=CC(=O)N1C[C@H](N(C)c2ccc3ncnc(Nc4ccc(Oc5ccc6c(c5)nnn6C)c(C)c4)c3n2)C[C@H]1C [Compound 266, 1-((2R,4R)-2-methyl-4-(methyl(4-((3-methyl-4-((1-methyl-1H-benzo[d][1,2,3]triazol-5-yl)oxy)phenyl)amino)pyrido[3,2-d]pyrimidin-6-yl)amino)pyrrolidin-1-yl)prop-2-en-1-one]
2 | 50 to 100 | 100 to 500 | C=CC(=O)N[C@@H]1CCCN(c2ccc3ncnc(Nc4ccc(Oc5ccc6c(c5)nnn6C)c(C)c4F)c3n2)[C@@H]1C [Compound 268, N-((2R,3R)-1-(4-((2-fluoro-3-methyl-4-((1-methyl-1H-benzo[d][1,2,3]triazol-5-yl)oxy)phenyl)amino)pyrido[3,2-d]pyrimidin-6-yl)-2-methylpiperidin-3-yl)acrylamide]
3 | 50 to 100 | 100 to 500 | C=CC(=O)N[C@]1(C)CCN(c2ccc3ncnc(Nc4ccc(Oc5ccc6c(c5)nnn6C)c(C)c4F)c3n2)C1 [Compound 270, (R)-N-(1-(4-((2-fluoro-3-methyl-4-((1-methyl-1H-benzo[d][1,2,3]triazol-5-yl)oxy)phenyl)amino)pyrido[3,2-d]pyrimidin-6-yl)-3-methylpyrrolidin-3-yl)acrylamide]
4 | 500 to 1000 | ≥ 1000 | C=CC(=O)N1CCN(c2ccc3ncnc(Nc4ccc(Oc5ccc6c(c5)nnn6C)c(C)c4F)c3n2)C[C@@H]1C1CC1 [Compound 271, (S)-1-(2-cyclopropyl-4-(4-((2-fluoro-3-methyl-4-((1-methyl-1H-benzo[d][1,2,3]triazol-5-yl)oxy)phenyl)amino)pyrido[3,2-d]pyrimidin-6-yl)piperazin-1-yl)prop-2-en-1-one]
5 | 100 to 500 | 100 to 500 | C=CC(=O)NC1CCN(c2ccc3ncnc(Nc4ccc(Oc5ccc6c(c5)nnn6C)c(C)c4F)c3n2)CC1 [Compound 272, N-(1-(4-((2-fluoro-3-methyl-4-((1-methyl-1H-benzo[d][1,2,3]triazol-5-yl)oxy)phenyl)amino)pyrido[3,2-d]pyrimidin-6-yl)piperidin-4-yl)acrylamide]
6 | 100 to 500 | 500 to 1000 | C=CC(=O)NC1(C)CCN(c2ccc3ncnc(Nc4ccc(Oc5ccc6c(c5)nnn6C)c(C)c4F)c3n2)CC1 [Compound 273, N-(1-(4-((2-fluoro-3-methyl-4-((1-methyl-1H-benzo[d][1,2,3]triazol-5-yl)oxy)phenyl)amino)pyrido[3,2-d]pyrimidin-6-yl)-4-methylpiperidin-4-yl)acrylamide]
7 | 500 to 1000 | ≥ 1000 | C=CC(=O)N[C@@H]1CCCN(c2ccc3ncnc(Nc4cc(C)c(Oc5ccc6c(c5)nnn6C)cc4OC)c3n2)C1 [Compound 274, (R)-N-(1-(4-((2-methoxy-5-methyl-4-((1-methyl-1H-benzo[d][1,2,3]triazol-5-yl)oxy)phenyl)amino)pyrido[3,2-d]pyrimidin-6-yl)piperidin-3-yl)acrylamide]
8 | 100 to 500 | 100 to 500 | C=CC(=O)N1CCN(c2ccc3ncnc(Nc4ccc(Oc5ccc6c(c5)nnn6C)c(C)c4F)c3n2)CC1(C)C [Compound 275, 1-(4-(4-((2-fluoro-3-methyl-4-((1-methyl-1H-benzo[d][1,2,3]triazol-5-yl)oxy)phenyl)amino)pyrido[3,2-d]pyrimidin-6-yl)-2,2-dimethylpiperazin-1-yl)prop-2-en-1-one]
9 | 100 to 500 | 500 to 1000 | C=CC(=O)N1CCN(c2ccc3ncnc(Nc4ccc(Oc5ccc6c(c5)ncn6C(F)F)c(C)c4)c3n2)C[C@@H]1C1CC1 [Compound 278, (S)-1-(2-cyclopropyl-4-(4-((4-((1-(difluoromethyl)-1H-benzo[d]imidazol-5-yl)oxy)-3-methylphenyl)amino)pyrido[3,2-d]pyrimidin-6-yl)piperazin-1-yl)prop-2-en-1-one]
10 | 500 to 1000 | ≥ 1000 | C=CC(=O)N1CCCN(c2ccc3ncnc(Nc4ccc(Oc5ccc6c(c5)nnn6C)c(C)c4)c3n2)C[C@@H]1C [Compound 284, (S)-1-(2-methyl-4-(4-((3-methyl-4-((1-methyl-1H-benzo[d][1,2,3]triazol-5-yl)oxy)phenyl)amino)pyrido[3,2-d]pyrimidin-6-yl)-1,4-diazepan-1-yl)prop-2-en-1-one]
11 | 500 to 1000 | ≥ 1000 | C=CC(=O)N1CCCN(c2ccc3ncnc(Nc4ccc(Oc5ccc6c(c5)nnn6C)c(C)c4)c3n2)C[C@H]1C [Compound 285, (R)-1-(2-methyl-4-(4-((3-methyl-4-((1-methyl-1H-benzo[d][1,2,3]triazol-5-yl)oxy)phenyl)amino)pyrido[3,2-d]pyrimidin-6-yl)-1,4-diazepan-1-yl)prop-2-en-1-one]
12 | 100 to 500 | ≥ 1000 | C=CC(=O)N1CCN(c2ccc3ncnc(Nc4ccc(Oc5ccc6c(c5)ncn6C(F)F)c(C)c4F)c3n2)C[C@@H]1C1CC1 [Compound 286, (S)-1-(2-cyclopropyl-4-(4-((4-((1-(difluoromethyl)-1H-benzo[d]imidazol-5-yl)oxy)-2-fluoro-3-methylphenyl)amino)pyrido[3,2-d]pyrimidin-6-yl)piperazin-1-yl)prop-2-en-1-one]
13 | 500 to 1000 | 100 to 500 | C=CC(=O)N[C@@H]1CCCCN(c2ccc3ncnc(Nc4ccc(Oc5ccc6c(c5)nnn6C)c(C)c4F)c3n2)C1 [Compound 289, (R)-N-(1-(4-((2-fluoro-3-methyl-4-((1-methyl-1H-benzo[d][1,2,3]triazol-5-yl)oxy)phenyl)amino)pyrido[3,2-d]pyrimidin-6-yl)azepan-3-yl)acrylamide]
14 | 100 to 500 | 500 to 1000 | C=CC(=O)N1CCN(c2ccc3ncnc(Nc4ccc(Oc5cc(F)c6c(c5)nnn6C)c(C)c4)c3n2)C[C@@H]1C1CC1 [Compound 290, (S)-1-(2-cyclopropyl-4-(4-((4-((7-fluoro-1-methyl-1H-benzo[d][1,2,3]triazol-5-yl)oxy)-3-methylphenyl)amino)pyrido[3,2-d]pyrimidin-6-yl)piperazin-1-yl)prop-2-en-1-one]
15 | 50 to 100 | 100 to 500 | C=CC(=O)N[C@H]1CCCCN(c2ccc3ncnc(Nc4ccc(Oc5ccc6c(c5)nnn6C)c(C)c4F)c3n2)C1 [Compound 291, (S)-N-(1-(4-((2-fluoro-3-methyl-4-((1-methyl-1H-benzo[d][1,2,3]triazol-5-yl)oxy)phenyl)amino)pyrido[3,2-d]pyrimidin-6-yl)azepan-3-yl)acrylamide]
16 | 100 to 500 | 100 to 500 | C=CC(=O)N1CCN(c2ccc3ncnc(Nc4ccc(Oc5ccc6c(c5)nnn6C)c(C)c4)c3n2)C[C@H]1CC [Compound 294, (R)-1-(2-ethyl-4-(4-((3-methyl-4-((1-methyl-1H-benzo[d][1,2,3]triazol-5-yl)oxy)phenyl)amino)pyrido[3,2-d]pyrimidin-6-yl)piperazin-1-yl)prop-2-en-1-one]
17 | 100 to 500 | 100 to 500 | C=CC(=O)N[C@@H]1C[C@@H](F)CN(c2ccc3ncnc(Nc4ccc(Oc5ccc6c(c5)nnn6C)c(C)c4F)c3n2)C1 [Compound 295, N-((3R,5R)-5-fluoro-1-(4-((2-fluoro-3-methyl-4-((1-methyl-1H-benzo[d][1,2,3]triazol-5-yl)oxy)phenyl)amino)pyrido[3,2-d]pyrimidin-6-yl)piperidin-3-yl)acrylamide]
18 | 100 to 500 | 100 to 500 | C=CC(=O)N[C@H]1CN(c2ccc3ncnc(Nc4ccc(Oc5ccc6c(c5)nnn6C)c(C)c4F)c3n2)CC[C@@H]1F [Compound 296, N-((3S,4S)-4-fluoro-1-(4-((2-fluoro-3-methyl-4-((1-methyl-1H-benzo[d][1,2,3]triazol-5-yl)oxy)phenyl)amino)pyrido[3,2-d]pyrimidin-6-yl)piperidin-3-yl)acrylamide]
19 | 50 to 100 | 100 to 500 | C=CC(=O)N1CCN(c2ccc3ncnc(Nc4ccc(Oc5ccc6c(c5)nnn6C)c(C)c4)c3n2)C[C@H]1C(C)C [Compound 297, (R)-1-(2-isopropyl-4-(4-((3-methyl-4-((1-methyl-1H-benzo[d][1,2,3]triazol-5-yl)oxy)phenyl)amino)pyrido[3,2-d]pyrimidin-6-yl)piperazin-1-yl)prop-2-en-1-one]
20 | 50 to 100 | < 50 | C=CC(=O)N[C@@H]1C[C@H](F)CN(c2ccc3ncnc(Nc4ccc(Oc5ccc6c(c5)nnn6C)c(C)c4F)c3n2)C1 [Compound 298, N-((3R,5S)-5-fluoro-1-(4-((2-fluoro-3-methyl-4-((1-methyl-1H-benzo[d][1,2,3]triazol-5-yl)oxy)phenyl)amino)pyrido[3,2-d]pyrimidin-6-yl)piperidin-3-yl)acrylamide]
21 | 100 to 500 | ≥ 1000 | C=CC(=O)N1CCN(c2ccc3ncnc(Nc4ccc(Oc5cc6nnn(C)c6c(F)c5C)c(C)c4)c3n2)C[C@H]1C [Compound 299, (R)-1-(4-(4-((4-((7-fluoro-1,6-dimethyl-1H-benzo[d][1,2,3]triazol-5-yl)oxy)-3-methylphenyl)amino)pyrido[3,2-d]pyrimidin-6-yl)-2-methylpiperazin-1-yl)prop-2-en-1-one]
22 | 100 to 500 | 100 to 500 | C=CC(=O)NC1CCN(c2ccc3ncnc(Nc4ccc(Oc5ccc6c(c5)nnn6C)c(C)c4)c3n2)CC1 [Compound 304, N-(1-(4-((3-methyl-4-((1-methyl-1H-benzo[d][1,2,3]triazol-5-yl)oxy)phenyl)amino)pyrido[3,2-d]pyrimidin-6-yl)piperidin-4-yl)acrylamide]
23 | 100 to 500 | 100 to 500 | C=CC(=O)N1CCN(c2ccc3ncnc(Nc4cc(C)c(Oc5ccc6c(c5)nnn6C)cc4OC(F)(F)F)c3n2)CC1(C)C [Compound 306, 1-(2,2-dimethyl-4-(4-((5-methyl-4-((1-methyl-1H-benzo[d][1,2,3]triazol-5-yl)oxy)-2-(trifluoromethoxy)phenyl)amino)py-rido[3,2-d]pyrimidin-6-yl)piperazin-1-yl)prop-2-en-1-one]
